Test: xn = mol fraction of the nth substance listed
Details: 101 kPa, Liquid; for viscosity: Falling or rolling sphere viscometry; for speed of sound: Frequency=3 MHz, Sing-around technique in a fixed-path interferometer; for mass density: Vibrating tube method

CCCC[n+]1ccn(C)c1.O=S(=O)([N-]S(=O)(=O)C(F)(F)F)C(F)(F)F + CCCO
Details | mass density [kg/m3] | speed of sound [m/s] | viscosity [mPa·s]
278.15 K, x1 = 0.0508 | 926.62 | 1252.2 | 4.722
278.15 K, x1 = 0.0949 | 1002.03 | 1241 | 6.623
278.15 K, x1 = 0.1989 | 1130.78 | 1235.7 | 11.44
278.15 K, x1 = 0.2976 | 1214 | 1239.7 | 16.84
278.15 K, x1 = 0.3912 | 1272.23 | 1245.7 | 22.98
278.15 K, x1 = 0.4852 | 1317.37 | 1250.9 | 31.14
278.15 K, x1 = 0.5929 | 1358.04 | 1256.8 | 42.15
278.15 K, x1 = 0.692 | 1388.04 | 1261.7 | 56.15
278.15 K, x1 = 0.7968 | 1414.14 | 1266.2 | 76.57
278.15 K, x1 = 0.903 | 1436.28 | 1270.3 | 102.44
298.15 K, x1 = 0.0508 | 909.64 | 1188.9 | 2.701
298.15 K, x1 = 0.0949 | 984.4 | 1181.4 | 3.573
298.15 K, x1 = 0.1989 | 1112.17 | 1180.9 | 5.908
298.15 K, x1 = 0.2976 | 1194.92 | 1187.6 | 8.374
298.15 K, x1 = 0.3912 | 1252.93 | 1195.6 | 10.88
298.15 K, x1 = 0.4852 | 1297.96 | 1201.7 | 14.14
298.15 K, x1 = 0.5929 | 1338.58 | 1208.6 | 18.55
298.15 K, x1 = 0.692 | 1368.59 | 1214.5 | 23.83
298.15 K, x1 = 0.7968 | 1394.7 | 1219.5 | 30.51
298.15 K, x1 = 0.903 | 1416.85 | 1224 | 39.95
318.15 K, x1 = 0.0508 | 892.29 | 1127.5 | 1.693
318.15 K, x1 = 0.0949 | 966.47 | 1123.7 | 2.187
318.15 K, x1 = 0.1989 | 1093.43 | 1128.2 | 3.491
318.15 K, x1 = 0.2976 | 1175.83 | 1137.6 | 4.677
318.15 K, x1 = 0.3912 | 1233.7 | 1147.2 | 6.173
318.15 K, x1 = 0.4852 | 1278.71 | 1154.6 | 7.805
318.15 K, x1 = 0.5929 | 1319.36 | 1162.5 | 10.1
318.15 K, x1 = 0.692 | 1349.4 | 1169.2 | 12.76
318.15 K, x1 = 0.7968 | 1375.56 | 1174.9 | 15.78
318.15 K, x1 = 0.903 | 1397.74 | 1180.1 | 19.35
338.15 K, x1 = 0.0508 | 874.3 | – | 1.136
338.15 K, x1 = 0.0519 | – | 1066.7 | –
338.15 K, x1 = 0.0949 | 948.03 | – | 1.457
338.15 K, x1 = 0.1037 | – | 1066.7 | –
338.15 K, x1 = 0.1989 | 1074.44 | – | 2.303
338.15 K, x1 = 0.2013 | – | 1076.8 | –
338.15 K, x1 = 0.2976 | 1156.66 | – | 3.004
338.15 K, x1 = 0.3088 | – | 1089 | –
338.15 K, x1 = 0.3912 | 1214.5 | – | 3.93
338.15 K, x1 = 0.3963 | – | 1100 | –
338.15 K, x1 = 0.4852 | 1259.59 | – | 4.908
338.15 K, x1 = 0.4918 | – | 1109.1 | –
338.15 K, x1 = 0.5723 | – | 1118.3 | –
338.15 K, x1 = 0.5929 | 1300.32 | – | 6.258
338.15 K, x1 = 0.692 | 1330.43 | – | 7.446
338.15 K, x1 = 0.7026 | – | 1125.4 | –
338.15 K, x1 = 0.7968 | 1356.65 | – | 9.633
338.15 K, x1 = 0.8055 | – | 1132 | –
338.15 K, x1 = 0.9025 | – | 1137.8 | –
338.15 K, x1 = 0.903 | 1378.89 | – | 11.48

CCn1cc[n+](C)c1.O=S(=O)([N-]S(=O)(=O)C(F)(F)F)C(F)(F)F + CCCO
Details | mass density [kg/m3] | speed of sound [m/s] | viscosity [mPa·s]
278.15 K, x1 = 0.4918 | 1372.4 | 1253.1 | 20.94
278.15 K, x1 = 0.5723 | 1410.18 | 1259.6 | 25.39
278.15 K, x1 = 0.7026 | 1459.58 | 1268.7 | 34.81
278.15 K, x1 = 0.8055 | 1491.11 | 1274.9 | 44.9
278.15 K, x1 = 0.9025 | 1516.35 | 1280 | 56.99
298.15 K, x1 = 0.0519 | 914.24 | 1184.8 | 2.639
298.15 K, x1 = 0.1037 | 1005.11 | 1175.1 | 3.53
298.15 K, x1 = 0.2013 | 1134.16 | 1175.8 | 5.134
298.15 K, x1 = 0.3088 | 1235.5 | 1186.2 | 6.891
298.15 K, x1 = 0.3963 | 1297.78 | 1195.6 | 8.358
298.15 K, x1 = 0.4918 | 1352.18 | 1205 | 10.6
298.15 K, x1 = 0.5723 | 1389.87 | 1212.2 | 12.63
298.15 K, x1 = 0.7026 | 1439.2 | 1222.2 | 16.89
298.15 K, x1 = 0.8055 | 1470.7 | 1228.9 | 21.07
298.15 K, x1 = 0.9025 | 1495.92 | 1234.3 | 25.97
318.15 K, x1 = 0.0519 | 896.79 | 1124.1 | 1.656
318.15 K, x1 = 0.1037 | 986.91 | 1119.3 | 2.083
318.15 K, x1 = 0.2013 | 1115.01 | 1124.8 | 2.938
318.15 K, x1 = 0.3088 | 1215.8 | 1137.8 | 3.978
318.15 K, x1 = 0.3963 | 1277.87 | 1148.3 | 4.994
318.15 K, x1 = 0.4918 | 1332.15 | 1158.9 | 6.245
318.15 K, x1 = 0.5723 | 1369.81 | 1166.8 | 7.454
318.15 K, x1 = 0.7026 | 1419.12 | 1177.7 | 9.792
318.15 K, x1 = 0.8055 | 1450.62 | 1185 | 11.97
318.15 K, x1 = 0.9025 | 1475.84 | 1191 | 14.58
338.15 K, x1 = 0.0519 | 878.72 | 1064.4 | 1.117
338.15 K, x1 = 0.1037 | 968.2 | 1064.1 | 1.389
338.15 K, x1 = 0.2013 | 1095.6 | 1074.6 | 1.956
338.15 K, x1 = 0.3088 | 1196.06 | 1090.4 | 2.656
338.15 K, x1 = 0.3963 | 1258.02 | 1102.6 | 3.333
338.15 K, x1 = 0.4918 | 1312.29 | 1114.4 | 4.156
338.15 K, x1 = 0.5723 | 1349.96 | 1123.2 | 4.931
338.15 K, x1 = 0.7026 | 1399.28 | 1135.3 | 6.395
338.15 K, x1 = 0.8055 | 1430.83 | 1143.2 | 7.634
338.15 K, x1 = 0.9025 | 1456.06 | 1149.7 | 9.201

CCCCCC[n+]1ccn(C)c1.O=S(=O)([N-]S(=O)(=O)C(F)(F)F)C(F)(F)F + CCCO
Details | mass density [kg/m3] | speed of sound [m/s] | viscosity [mPa·s]
278.15 K, x1 = 0.048 | 920.02 | 1255.6 | 4.973
278.15 K, x1 = 0.0991 | 1003.18 | 1246.2 | 7.263
278.15 K, x1 = 0.1928 | 1109.95 | 1243.7 | 13.14
278.15 K, x1 = 0.2895 | 1184.1 | 1246.9 | 20.71
278.15 K, x1 = 0.3911 | 1239.44 | 1252 | 30.93
278.15 K, x1 = 0.4877 | 1278.76 | 1256.3 | 44.03
278.15 K, x1 = 0.6028 | 1314.62 | 1261.3 | 63.47
278.15 K, x1 = 0.6999 | 1338.53 | 1265.1 | 87.45
278.15 K, x1 = 0.8016 | 1359.18 | 1268.5 | 117.11
278.15 K, x1 = 0.8999 | 1375.88 | 1271.5 | 155.87
298.15 K, x1 = 0.048 | 903.08 | 1191.5 | 2.872
298.15 K, x1 = 0.0991 | 985.65 | 1186 | 3.917
298.15 K, x1 = 0.1928 | 1091.69 | 1187.7 | 6.538
298.15 K, x1 = 0.2895 | 1165.51 | 1193.5 | 9.707
298.15 K, x1 = 0.3911 | 1220.7 | 1200.4 | 13.78
298.15 K, x1 = 0.4877 | 1259.96 | 1205.8 | 18.59
298.15 K, x1 = 0.6028 | 1295.83 | 1211.8 | 25.71
298.15 K, x1 = 0.6999 | 1319.79 | 1216.2 | 33.17
298.15 K, x1 = 0.8016 | 1340.46 | 1220.1 | 42.83
298.15 K, x1 = 0.8999 | 1357.18 | 1223.3 | 54.58
318.15 K, x1 = 0.048 | 885.86 | 1129.7 | 1.799
318.15 K, x1 = 0.0991 | 967.85 | 1128.2 | 2.374
318.15 K, x1 = 0.1928 | 1073.33 | 1134 | 3.734
318.15 K, x1 = 0.2895 | 1146.9 | 1142.4 | 5.367
318.15 K, x1 = 0.3911 | 1202.04 | 1151 | 7.383
318.15 K, x1 = 0.4877 | 1241.33 | 1157.7 | 9.855
318.15 K, x1 = 0.6028 | 1277.27 | 1164.8 | 13.26
318.15 K, x1 = 0.6999 | 1301.3 | 1169.8 | 16.47
318.15 K, x1 = 0.8016 | 1322.04 | 1174.3 | 20.58
318.15 K, x1 = 0.8999 | 1338.82 | 1178.1 | 25.19
338.15 K, x1 = 0.048 | 868.04 | 1069.2 | 1.203
338.15 K, x1 = 0.0991 | 949.6 | 1071.6 | 1.565
338.15 K, x1 = 0.1928 | 1054.71 | 1081.8 | 2.399
338.15 K, x1 = 0.2895 | 1128.21 | 1092.8 | 3.401
338.15 K, x1 = 0.3911 | 1183.4 | 1103.3 | 4.568
338.15 K, x1 = 0.4877 | 1222.81 | 1111.4 | 5.928
338.15 K, x1 = 0.6028 | 1258.9 | 1119.7 | 7.803
338.15 K, x1 = 0.6999 | 1283.03 | 1125.6 | 9.596
338.15 K, x1 = 0.8016 | 1303.87 | 1130.8 | 11.71
338.15 K, x1 = 0.8999 | 1320.72 | 1135.3 | 13.92

— the NIST ThermoML archive (doi:10.1021/acs.jced.5b00181)
